Measured values: patent publication US9895390B2, “Methods and assays for combination treatment of cancer” (CHILDREN'S MEDICAL CENTER CORPORATION, priority 2012, dated 2018)
Where two headings read alike, the source gives them in different places.

What was measured:
human NSCLC lines = experiment: Cytotox assays: chemotherapy dose response curves with or without EZH2 inhibitor, 4 days; assay type: cell-based; settings: for IC50: various NSCLC cell lines, 4 days, read-out: etoposide IC50
Method: Cell lines were dissociated, counted and plated at 5000 cells per well in flat bottom opaque tissue culture treated 96 well plates (CytoOne). Edge wells were filled with PBS. The following day, 2× drug diluted in media was added to each well such that the well then contained 100 ul media with 1× drug concentration. After 4 days, Cell Titer Glo™ (Promega) was added and luminescence was read on a BioTec plate reader to determine relative cell number in each well. Data were averaged for triplicate or quadruplicate technical replicates, normalized to the untreated wells and input into GraphPad Prism software to extrapolate IC50.
Cell lines were dissociated, counted and plated at 5000 cells per well in flat bottom opaque tissue culture treated 96 well plates (CytoOne). Edge wells were filled with PBS. The following day, 2× drug diluted in media was added to each well such that the well then contained 100 ul media with 1× drug concentration at the following doses: etoposide; 0, 0.1, 1, 3, 5, 7, 10, 50, 100, 500 μM, cisplatin; 0, 0.1, 1, 5, 10, 30, 70, 100, 500 μM, or doxorubicin; 0, 0.01, 0.1, 0.5, 1, 3, 5, 7, 10, 50 μM. […] Data were averaged for triplicate or quadruplicate technical replicates and normalized to the untreated wells. Results from three or four independent biological replicate experiments were input into […] PRISM™ software to extrapolate IC50 and s.e.m. of IC50 for a given cell line.

EZH2 and H3K27me3 = experiment: Western Blot for EZH2 and H3K27me3 on whole cell extracts; assay type: cell-based, human; settings: 10 μM GSK126, 7 days in culture
Method: For Western blotting, 25 μg of protein extract per sample was denatured with heat and reducing agents, separated on a 4-12% acrylimide gel and transferred to nitrocellulose. Antibodies used for Western blotting were: EZH2 (Cell Signalling), β-actin (AbCAM) and H3K27me3 (Upstate).
Whole cell extracts were made in RIPA buffer (0.5% Deoxycholate, 1% IGEPAL-CA630, 0.1% sodium dodecyl sulfate, 150 mM NaCL, 50 mM Tris-8.1), lysates were cleared by centrifugation, and protein concentrations were quantified with the Pierce BCA Protein Assay Kit (Thermo). For Western blotting, 25 μg of protein extract per sample was denatured with heat and reducing agents, separated on a 4-12% acrylimide gel (BioRad) and transferred to nitrocellulose (GE Healthcare). Antibodies used for Western blotting were: EZH2 (clone D2C9; Cell Signaling; 1:200), Histone H3 (polyclonal; AbCAM ab1791; 1:2000) and H3K27me3 (polyclonal; Millipore 07-449; 1:1000) all incubated overnight at 4° C. Secondary antibody, anti-rabbit-HRP (Santa Cruz sc-2313; 1:5,000), was incubated for 1 hour at room temperature. After washing, chemi-luminescence was visualized with Western Lightning Plus-ECL (PerkinElmer) and exposure onto KODAK BioMax XAR™ film.

[1] = system: BRG1 mutant and BRG1 wild-type cell lines; experiment: Gefitinib dose response curves, 4 days; assay type: cell-based, human; settings: data not shown

CC[C@H](C)n1cc(C)c2c(C(=O)NCc3c(C)cc(C)[nH]c3=O)cc(-c3ccc(N4CCNCC4)nc3)cc21 [GSK126]
etoposide dose response: classes of GSK126 treated cell lines (human NSCLC lines; 10 μM GSK126): same TopoII inhibitor-sensitized and -protected classes
EZH2 levels (EZH2 and H3K27me3): remained unchanged
H3K27me3 levels (EZH2 and H3K27me3): marked decrease

N.N.[Cl][Pt][Cl] [cisplatin]
cisplatin IC30 (human NSCLC lines; NSCLC cell lines, approximate): ~5 µM

COc1cc([C@@H]2c3cc4c(cc3[C@@H](O[C@@H]3O[C@@H]5CO[C@@H](C)O[C@H]5[C@H](O)[C@H]3O)[C@H]3COC(=O)[C@H]23)OCO4)cc(OC)c1O [etoposide]
IC50 (human NSCLC lines; Homo sapiens, 96 h, approximate): ~10 µM
IC50 (human NSCLC lines; approximate): ~5 µM

COc1cc2ncnc(Nc3ccc(F)c(Cl)c3)c2cc1OCCCN1CCOCC1 [gefitinib]
gefitinib sensitivity of BRG1 mutant vs BRG1 wild-type cell lines [1]: slightly more sensitive
